Test results reported in US20040115162A1, “Dermatological preparations” (KAO CORPORATION, priority 1999, published 2004).

Key:
horny layer = test: Test 1: skin conductance (water content of the horny layer) after 2-week application on cheeks; assay type: in vivo, human; design: unit not given here; settings: preparation of 33% diamide derivative and 67% vaseline; applied on cheeks 2 weeks; ten female subjects with chapping; skin conductance meter, 20° C., humidity 45%
Protocol: (§1) Dermatologic preparations (invention products) composed of 33% of each of the diamide derivatives prepared in Preparation Examples 1 to 18 and 67% of vaseline were prepared. Their effects on skin conductance and chapping were evaluated in the below-described manner. For comparison, a dermatologic preparation (Comparative Product 1) composed of vaseline alone was evaluated in the same manner.
(§2) Ten female subjects aged 20 to 50 years, who suffered chapping in cheeks in winter, were employed. Different dermatologic preparations were applied on the right and left cheeks of the subjects for 2 weeks, respectively. On the next day after completion of the application for 2 weeks, the following items were examined.
The face of each subject was washed with warm water of 37° C. After they were allowed to stand in a room at 20° C. under a humidity of 45% for 20 minutes, the water content of the horny layer was measured using a skin conductance meter (product of IBS Co., Ltd.).

chapping in cheeks = test: Test 1: skin chapping score by naked-eye observation after 2-week application on cheeks; assay type: in vivo, human; settings: 33% diamide derivative and 67% vaseline, 2 weeks, mean score, 0 no chapping to 4 serious chapping
Protocol: as §1, §2
Each score is expressed in the mean value.
0: No chapping is observed.
1: Slight chapping is observed.
3: Somewhat serious chapping is observed.
4: Serious chapping is observed.

[1] = test system: dorsal skin of rats with essential fatty acid deficiency; test: Test 2: transepidermal water loss in rats with essential fatty acid deficiency; assay type: in vivo, Wistar male rats; design: unit not given here; settings: 10% diamide derivative and 90% squalane; applied to shaven dorsal part once a day for 2 weeks; evaporimeter; mean of 5 rats
Protocol: (§3) Dermatologic preparations (invention products) of the present invention composed of 10% of each of the diamide derivatives prepared in Preparation Examples 1 to 18 and 90% of squalane were prepared and their transepidermal water loss and percutaneous absorption were evaluated by the below-described test method. For comparison, a dermatologic preparation (Comparative Product 2) composed of squalane alone was also evaluated by the test.
(§4) Wistar male rats were fed with a feed free from essential fatty acids and the resulting rats with essential fatty acid deficiency were employed in this test. The dorsal part of the rat showing essential fatty acid deficiency was carefully shaven and each dermatologic preparation to be evaluated was applied thereto once a day for 2 weeks. A group consisting of 5 rats was provided for the test of each dermatologic preparation. After 2 weeks, the following items were examined.
The dorsal part of the test rat was washed with warm water and the animal was the allowed to stand in a room (at 23° C. under a humidity of 45%) for 1 hour. The transepidermal water loss was then measured with an evaporimeter. Each measured value is expressed in mean value.

[2] = test system: dorsal skin of rats with essential fatty acid deficiency; test: Test 2: percutaneous absorption of 14C-salicylic acid through excised dorsal skin of treated rats; assay type: in vivo, Wistar male rats; settings: 10% diamide derivative and 90% squalane; once a day for 2 weeks; radioactivity of 14C-salicylic acid penetrated in 2 hours through excised skin; mean
Protocol: as §3, §4
After the dorsal skin of the rat was washed with warm water of 37° C., it was cut and fixed in a percutaneous absorption chamber with the epidermal side thereof directed upward. A lower receiver of the chamber was filled with a phosphate buffer solution while a container on the epidermal side thereof was charged with 1 ml of a phosphate buffer solution containing 37 KBq of ^14C-salicylic acid. Two hours after they were allowed to stand, 1 mL of the phosphate buffer solution was taken out of the lower receiver and the radioactivity of the ^14C-salicylic acid which had penetrated into it was measured. Each value is expressed in mean value.

[3] = Miscibility and mixing stability in cosmetic formulations; assay type: physicochemical
[4] = in hair liquid composition of Table 10, 1%

## CCCCCCCCCCCCOCCCNC(=O)CCCCCCC(C)CCCCC(C)CCCCCCC(=O)NCCCOCCCCCCCCCCCC (stereo not drawn) [Compound (G)]
Horny layer
  Skin conductance: 17
Chapping in cheeks
  Skin chapping score: 1.1
[1]
  Transepidermal water loss: 16
[2]
  Percutaneous absorption: 1096

## CC(CCCCCCC(=O)NCCOCCO)CCCCC(C)CCCCCCC(=O)NCCOCCO (stereo not drawn) [Compound (A)]
Horny layer
  Skin conductance: 28
Chapping in cheeks
  Skin chapping score: 0.6
[1]
  Transepidermal water loss: 12
[2]
  Percutaneous absorption: 572
[3]; in shampoo of Table 9, 2%
  miscibility and mixing stability: excellent
[3]; in skin lotion of Table 7, 1%
  miscibility and mixing stability: excellent

## COCCOCCNC(=O)CCCCCCC(C)CCCCC(C)CCCCCCC(=O)NCCOCCOC (stereo not drawn) [Compound (H)]
Horny layer
  Skin conductance: 19
Chapping in cheeks
  Skin chapping score: 1.3
[1]
  Transepidermal water loss: 23
[2]
  Percutaneous absorption: 2036

## O=C(CCCCCCCCCCCCCC(=O)NCCOCCO)NCCOCCO [Compound (I)]
[1]
  Transepidermal water loss: 18
[2]
  Percutaneous absorption: 1197

## COCCCNC(=O)CCCCCCCCC(=O)NCCCOC [Compound (N)]
Horny layer
  Skin conductance: 18
Chapping in cheeks
  Skin chapping score: 1.5
[1]
  Transepidermal water loss: 23
[2]
  Percutaneous absorption: 1560

## CCCCCCCCCCCCOCCCNC(=O)CCCCCCCCC(=O)NCCCOCCCCCCCCCCCC [Compound (O)]
[1]
  Transepidermal water loss: 27
[2]
  Percutaneous absorption: 2476

## O=C(CCCCCCCCC(=O)NCCOCCO)NCCOCCO [Compound (D)]
Horny layer
  Skin conductance: 30
Chapping in cheeks
  Skin chapping score: 0.5
[1]
  Transepidermal water loss: 15
[2]
  Percutaneous absorption: 997
[3]; in O/W cream of Table 8, 3.5%
  miscibility and mixing stability: excellent
[3]; [4]
  miscibility and mixing stability: excellent

## O=C(CCCCCCCCCCCC(=O)NCCOCCO)NCCOCCO [Compound (J)]
Horny layer
  Skin conductance: 23
Chapping in cheeks
  Skin chapping score: 0.8
[1]
  Transepidermal water loss: 21
[2]
  Percutaneous absorption: 1490

## COCCCNC(=O)CCCCCCCCCCC(=O)NCCCOC [Compound (M)]
[1]
  Transepidermal water loss: 25
[2]
  Percutaneous absorption: 2038

## COCCCNC(=O)CCCCCCC(C)CCCCC(C)CCCCCCC(=O)NCCCOC (stereo not drawn) [Compound (F)]
Horny layer
  Skin conductance: 20
Chapping in cheeks
  Skin chapping score: 1.2
[1]
  Transepidermal water loss: 20
[2]
  Percutaneous absorption: 1487
[3]; in O/W cream of Table 8, 3.5%
  miscibility and mixing stability: excellent
[3]; [4]
  miscibility and mixing stability: excellent
[3]; in shampoo of Table 9, 2%
  miscibility and mixing stability: excellent
[3]; in skin lotion of Table 7, 1%
  miscibility and mixing stability: excellent

## O=C(CCCCCCCCCCC(=O)NCCOCCO)NCCOCCO [Compound (K)]
[1]
  Transepidermal water loss: 22
[2]
  Percutaneous absorption: 1694

## C/C(=C\CC/C=C(\C)CCCCCCC(=O)NCCOCCO)CCCCCCC(=O)NCCOCCO [Compound (B)]
Horny layer
  Skin conductance: 25
Chapping in cheeks
  Skin chapping score: 0.9
[1]
  Transepidermal water loss: 12
[2]
  Percutaneous absorption: 558

## O=C(CCCCCCCCCCCCCCCCCCC(=O)NCCOCCO)NCCOCCO [Compound (C)]
Horny layer
  Skin conductance: 21
Chapping in cheeks
  Skin chapping score: 1.0
[1]
  Transepidermal water loss: 21
[2]
  Percutaneous absorption: 1685

## O=C(CCC(=O)NCCOCCO)NCCOCCO [Compound (E)]
Horny layer
  Skin conductance: 18
Chapping in cheeks
  Skin chapping score: 1.0
[1]
  Transepidermal water loss: 25
[2]
  Percutaneous absorption: 1772

## COCCCNC(=O)CCCCCCCCCCCCCCCCCCC(=O)NCCCOC [Compound (L)]
Horny layer
  Skin conductance: 19
Chapping in cheeks
  Skin chapping score: 1.3
[1]
  Transepidermal water loss: 15
[2]
  Percutaneous absorption: 705
